Experimental data from US20020137929A1, “1 - (3-heterocyclylphenyl) isothiourea, -isourea, -guanidine and -amidine herbicidal agents” (Intellectual Property Department, BASF Aktiengesellschaft, priority 1998, published 2002).

Experiments:
ABUTH (Velvetleaf) = assay: Postemergence herbicidal evaluation; type: in vivo, Abutilon theophrasti; conditions: postemergence
Method in brief: (§1)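 Herbicidal effect was judged by eye on a 0–9 scale covering stand, vigor, deformity, size and chlorosis, compared with controls, four to five weeks after seedlings about two weeks old were sprayed (40 psi, ~0.0156–0.500 kg/ha).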

AMBEL (Ragweed, Common) [1] = assay: Postemergence herbicidal evaluation; type: in vivo, Ambrosia artemisifolia; conditions: postemergence
Method in brief: as §1

[2] = test system: CHEAL (Lambsquarters, Common); assay: Postemergence herbicidal evaluation; type: in vivo, Chenopodium album; conditions: postemergence
Method in brief: as §1

GALAP (Galium) = assay: Postemergence herbicidal evaluation; type: in vivo, Galium aparine; conditions: postemergence
Method in brief: as §1

ECHCG (Barnyardgrass) = assay: Postemergence herbicidal evaluation; type: in vivo, Echinochloa crus-galli; conditions: postemergence
Method in brief: as §1

SETVI (Foxtail, Green) = assay: Postemergence herbicidal evaluation; type: in vivo, Setaria viridis; conditions: postemergence
Method in brief: as §1

[3] = test system: GLXMAW (Soybean, Williams); assay: Postemergence herbicidal evaluation; type: in vivo, Glycine max, (L.) Merr. cv Williams; conditions: postemergence
Method in brief: as §1

ORYSAT (Rice, Tebonnet) [4] = assay: Postemergence herbicidal evaluation; type: in vivo, Oryza sativa, (L.) Tebonnet; conditions: postemergence
Method in brief: as §1

[5] = test system: TRZAWR (Wheat, Winter, cv Riband); assay: Postemergence herbicidal evaluation; type: in vivo, Triticum aestivum; conditions: postemergence
Method in brief: as §1

AMBEL (Ragweed, Common) [6] = assay: Preemergence herbicidal evaluation; type: in vivo, Ambrosia artemisifolia; conditions: rated 4-5 weeks after treatment
Method in brief: (§2)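 Scores use a 0–9 visual scale covering stand, vigor, malformation, size and chlorosis relative to controls, rated four to five weeks after treatment. Before emergence, soil-planted seeds were sprayed with compound in aqueous acetone at roughly 0.0156–0.500 kg/ha and held in the greenhouse.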

[7] = test system: CHEAL (Lambsquarters, Common); assay: Preemergence herbicidal evaluation; type: in vivo, Chenopodium album; conditions: rated 4-5 weeks after treatment
Method in brief: as §2

ORYSAT (Rice, Tebonnet) [8] = assay: Preemergence herbicidal evaluation; type: in vivo, Oryza sativa, (L.) Tebonnet; conditions: rated 4-5 weeks after treatment
Method in brief: as §2

[9] = test system: SAGPY (Arrowhead (Pygmaea)); assay: Preemergence weed control under flooded paddy conditions; type: in vivo, Sagittaria pygmaea; conditions: rated 3-4 weeks after treatment
Method in brief: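 First, seeds or propagules go into the top 0.5 cm of silt loam; next, water is held 1.5 to 3 cm over the soil; then compound (50/50 acetone/water) is pipetted into it at about 0.0313 to 0.500 kg/ha; finally plants are rated visually 0-9 after three to four weeks.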

ORYSAT (Rice, Tebonnet) [10] = assay: Rice tolerance to post-transplant applications, flooded paddy conditions (Table III); type: in vivo, Oryza sativa, (L.) Tebonnet; conditions: in vivo
Method in brief: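 Injury scored 0-9 by eye against untreated control, judging stand, vigor, malformation, size and chlorosis, three to four weeks after treatment. Compound in 50/50 aqueous/acetone, about 0.0313 to 0.500 kg/ha, was applied to paddy water (1.5 to 3 cm depth) three days after transplanting paired ten-day-old Tebonnet rice seedlings.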

## COC(=O)C(C)OC(=O)CN1C(=O)CSC1=Nc1cc(-n2c(=O)cc(C(F)(F)F)n(C)c2=O)c(F)cc1Cl (stereo not drawn) [Compound 116, 2-{{2-Chloro-5-[3,6-dihydro-3-methyl-2,6-dioxo-4-(trifluoromethyl)-1(2H)-pyrimidinyl]-4-fluorophenyl}imino}-4-oxo-3-thiazolidineacetic acid, ester with methyl lactate]
ABUTH (Velvetleaf); rate 0.0158 kg/ha
  Herbicidal rating ABUTH: 9.0
ABUTH (Velvetleaf); rate 0.0315 kg/ha
  Herbicidal rating ABUTH: 9.0
ABUTH (Velvetleaf); rate 0.0630 kg/ha
  Herbicidal rating ABUTH: 9.0
AMBEL (Ragweed, Common) [1]; rate 0.0158 kg/ha
  Herbicidal rating AMBEL: 9.0
AMBEL (Ragweed, Common) [1]; rate 0.0315 kg/ha
  Herbicidal rating AMBEL: 9.0
AMBEL (Ragweed, Common) [1]; rate 0.0630 kg/ha
  Herbicidal rating AMBEL: 7.0
[2]; rate 0.0158 kg/ha
  Herbicidal rating CHEAL: 4.0
[2]; rate 0.0315 kg/ha
  Herbicidal rating CHEAL: 5.0
[2]; rate 0.0630 kg/ha
  Herbicidal rating CHEAL: 9.0
GALAP (Galium); rate 0.0158 kg/ha
  Herbicidal rating GALAP: 0.0
GALAP (Galium); rate 0.0315 kg/ha
  Herbicidal rating GALAP: 0.0
GALAP (Galium); rate 0.0630 kg/ha
  Herbicidal rating GALAP: 0.0
ECHCG (Barnyardgrass); rate 0.0158 kg/ha
  Herbicidal rating ECHCG: 3.0
ECHCG (Barnyardgrass); rate 0.0315 kg/ha
  Herbicidal rating ECHCG: 1.0
ECHCG (Barnyardgrass); rate 0.0630 kg/ha
  Herbicidal rating ECHCG: 2.0
SETVI (Foxtail, Green); rate 0.0158 kg/ha
  Herbicidal rating SETVI: 1.0
SETVI (Foxtail, Green); rate 0.0315 kg/ha
  Herbicidal rating SETVI: 3.0
SETVI (Foxtail, Green); rate 0.0630 kg/ha
  Herbicidal rating SETVI: 3.0
[3]; rate 0.0158 kg/ha
  Herbicidal rating GLXMAW: 5.5
[3]; rate 0.0315 kg/ha
  Herbicidal rating GLXMAW: 5.5
[3]; rate 0.0630 kg/ha
  Herbicidal rating GLXMAW: 5.5
ORYSAT (Rice, Tebonnet) [4]; rate 0.0158 kg/ha
  Herbicidal rating ORYSAT: 1.5
ORYSAT (Rice, Tebonnet) [4]; rate 0.0315 kg/ha
  Herbicidal rating ORYSAT: 2.0
ORYSAT (Rice, Tebonnet) [4]; rate 0.0630 kg/ha
  Herbicidal rating ORYSAT: 2.0
[5]; rate 0.0158 kg/ha
  Herbicidal rating TRZAWR: 1.5
[5]; rate 0.0315 kg/ha
  Herbicidal rating TRZAWR: 2.5
[5]; rate 0.0630 kg/ha
  Herbicidal rating TRZAWR: 2.5
AMBEL (Ragweed, Common) [6]; rate 0.0156 kg/ha
  Preemergence herbicidal rating AMBEL: 0.0
AMBEL (Ragweed, Common) [6]; rate 0.0313 kg/ha
  Preemergence herbicidal rating AMBEL: 0.0
AMBEL (Ragweed, Common) [6]; rate 0.0625 kg/ha
  Preemergence herbicidal rating AMBEL: 2.0
AMBEL (Ragweed, Common) [6]; rate 0.1250 kg/ha
  Preemergence herbicidal rating AMBEL: 2.0
AMBEL (Ragweed, Common) [6]; rate 0.2500 kg/ha
  Preemergence herbicidal rating AMBEL: 1.0
[7]; rate 0.0156 kg/ha
  Preemergence herbicidal rating CHEAL: 9.0
[7]; rate 0.0313 kg/ha
  Preemergence herbicidal rating CHEAL: 9.0
[7]; rate 0.0625 kg/ha
  Preemergence herbicidal rating CHEAL: 4.0
[7]; rate 0.1250 kg/ha
  Preemergence herbicidal rating CHEAL: 7.0
[7]; rate 0.2500 kg/ha
  Preemergence herbicidal rating CHEAL: 9.0
ORYSAT (Rice, Tebonnet) [8]; rate 0.0156 kg/ha
  Preemergence herbicidal rating ORYSAT: 0.0
ORYSAT (Rice, Tebonnet) [8]; rate 0.0313 kg/ha
  Preemergence herbicidal rating ORYSAT: 0.0
ORYSAT (Rice, Tebonnet) [8]; rate 0.0625 kg/ha
  Preemergence herbicidal rating ORYSAT: 0.0
ORYSAT (Rice, Tebonnet) [8]; rate 0.1250 kg/ha
  Preemergence herbicidal rating ORYSAT: 0.0
ORYSAT (Rice, Tebonnet) [8]; rate 0.2500 kg/ha
  Preemergence herbicidal rating ORYSAT: 1.0
[9]; 0.0313 kg/ha
  herbicidal effect rating, SAGPY: 2.0
[9]; 0.0625 kg/ha
  herbicidal effect rating, SAGPY: 3.0
[9]; 0.1250 kg/ha
  SAGPY herbicidal effect rating: 5.0
[9]; 0.2500 kg/ha
  SAGPY herbicidal effect rating: 6.0
ORYSAT (Rice, Tebonnet) [10]
  ORYSAT herbicidal effect rating (rice tolerance): 4.0
  herbicidal effect rating, ORYSAT (rice tolerance): 2.0
